Assay results taken from US20090042991A1, “Methods of increasing natural killer cell activity for therapy” (priority 2005, published 2009).
Several values for one entry are separate records, joined by “and”; a condition that tells them apart may be missing. Equal values may be shown once. Entries after “also recorded” stand apart in the source; their conditions may differ.

How the values were obtained:
NK cell activity [1] = test: NK cell cytotoxic activity of patient PBMC (K562/eGFP flow cytometry), melanoma study; assay type: in vivo, human; conditions: for % tumor cell lysis pre-dose: baseline before dosing
Source text: (§1) The following procedure can be employed to assay NK cell activity in a subject. The procedure is adapted from Kantakamalakul W, Jaroenpool J, Pattanapanyasat K. A novel enhanced green fluorescent protein (EGFP)-K562 flow cytometric method for measuring natural killer (NK) cell cytotoxic activity. J Immunol Methods. 2003 Jan. 15; 272:189-197, the entire teachings of which are incorporated herein by reference.
(§2) Materials and methods: Human erythroleukaemic cell line, K562, was obtained from American Type Culture Collection (CCL-243, American Type Culture Collection, Manassas, Va.), and cultured in RPMI-1640 medium (Cat#1875-093Gibco Invitrogen Corp, Carlsbad, Calif.) supplemented with 10% heat inactivated fetal calf serum (Gibco), 2 mM L-glutamin, 100 μg/ml streptomycin and 100 IU/ml penicillin at 37° C. with 5% CO2. K562 cells were transduced with retroviral vector which encode green fluorescent protein (eGFP). Stable cell line was selected with antibiotic, G418.
(§3) The subject's peripheral blood mononuclear cells (PBMCs) were prepared by clinical study sites and received in BD Vacutainer Cell Preparation Tube with sodium heparin (Product Number: 362753, Becton Dickinson, Franklin Lakes, N.J.).
(§4) Effector cells alone and target cells alone were used as controls. All tubes were incubated at 37° C. with 5% CO2 for about 3.5 hr. Ten microliters of propidium iodide (PI) at a concentration of 1 mg/mL was added t each tube including effector and target control tubes and then incubated at room temperature for 15 min.
(§5) Cytotoxic activity was analyzed with a FACSCalibur flow cytometer (Becton Dickinson). Linear amplification of the forward and side scatter (FSC/SSC) signals, as well as logarithmic amplification of eGFP and PI emission in green and red fluorescence were obtained. Ten thousand events per sample tube with no gating for acquisition were collected for analysis. Data analysis for two-parameter dot plots for eGFP versus PI was performed using CELLQuest (Becton Dickinson Biosciences) software to enumerate live and dead target cells. Debris and dead cells were excluded by setting a threshold of forward light scatter.
(§6) The study will continue to Stage 2 if 7 or more patients have a response of stable disease or better, or at least 2 patients have a partial response or better. A safety assessment was performed with the first 6 patients enrolled as the weekly dose schedule had not previously been studied in humans. The primary endpoint is non-progression rate (NPR) at 3 months and response rate. Pharmacodynamic parameters include pre and post-dose NK cell activity in blood and when possible, tumor biopsies.
(§7) Best Response indicates an evaluation of the patient's tumor: SD indicates less than 20% of an increase and less than 30% of a decrease in the sum of the longest diameters as compared to baseline; and PD=at least a 20% increase in the sum of the longest diameters as compared to baseline. NK Activity indicates the change in NK activity before and after dosing.

Hsp70 = test: Phase I trial: plasma Hsp70 by sandwich ELISA; assay type: in vivo, human
Protocol: Plasma Hsp70 was measured by a sandwich ELISA kit (Stressgen Bioreagents Victoria, British Columbia, CANADA) according to a modified protocol in house. In brief, Hsp70 in plasma specimens and serial concentrations of Hsp70 standard were captured onto 96-well plate on which anti-Hsp70 antibody was coated. Then captured Hsp70 was detected with a biotinylated anti-Hsp70 antibody followed by incubation with europium-conjugated streptavidin. After each incubation unbound materials were removed by washing. Finally, antibody-Hsp70 complex was measured by time resolved fluorometry of europium. Concentration of Hsp70 was calculated from a standard curve.

[2] = test system: non-small cell lung carcinoma; test: Phase 1/2 study: tumor response (RECIST) with carboplatin and paclitaxel; assay type: in vivo, human; conditions: for Best Response / Target Lesions (percent change): one value per subject
Sarcoma study: safety = assay type: in vivo, human; conditions: 213 mg/m2 Compound (1) and 80 mg/m2 paclitaxel weekly
Protocol: The study is a 2 stage design, enrolling 30 patients in the first stage and adding 50 patients to total 80 if certain continuation criteria are met. Major inclusion criteria are refractory or recurrent soft tissue sarcomas other than gastrointestinal stromal tumor (GIST), with evidence of recent progression. […] For example, the compounds were administered together 3 weeks out of 4 on Days 1, 8, and 15 of a 28 day cycle as a 1 hour IV infusion. 30 Patients have been enrolled to completed accrual of Stage 1.

NK cell activity [3] = test: NK cell cytotoxic activity of patient PBMC (K562/eGFP flow cytometry), sarcoma study; assay type: in vivo, human; conditions: for % tumor cell lysis post-dose / NK activity (change before and after dosing) / % tumor cell lysis pre-dose: Paclitaxel 80 + Cmpnd (1) 213 mg/M^2 weekly; for % tumor cell lysis pre-dose: baseline before dosing
Source text: as §1, §2, §3, §4, §5
as §7, with “tumor: PR=at least a 30% decrease in the sum of the longest diameters as compared to baseline;” for “tumor:”

Melanoma study: safety = assay type: in vivo, human
Protocol: The higher tolerated dose level was expanded to a total of 20 patients (Stage 1).
as §6

[4] = Phase I trial: pharmacokinetics in plasma by LC/MS
Protocol: Pharmacokinetic (PK) studies were performed during cycle 1 using liquid chromatography/mass spectrometry (LC/MS) to measure both compounds in plasma. Heat shock protein 70 (Hsp70) was measured in plasma before and after treatment.

[5] = Paclitaxel 80 + Cmpnd (1) 106 mg/M^2 weekly, Effector/Target 80:1, one value per subject
[6] = Paclitaxel 80 + Cmpnd (1) 213 mg/M^2 weekly, Effector/Target 80:1, one value per subject
[7] = Paclitaxel 80 + Cmpnd (1) 213 mg/M^2 weekly, Effector/Target (40:1), subject 15
[8] = Paclitaxel 175 + Cmpnd (1) 233 mg/M^2 (carboplatin AUC 6)
[9] = Paclitaxel 200 + Cmpnd (1) 266 mg/M^2 (carboplatin AUC 6)
[10] = Effector/Target 80:1, one value per subject
[11] = Effector/Target (40:1), subject 30

CN(NC(=O)CC(=O)NN(C)C(=S)c1ccccc1)C(=S)c1ccccc1 [Compound (1)]
serious effects specifically attributable to Compound (1) (35 patients, 8 dose levels, with paclitaxel IV every 3 weeks): No serious effects
tolerability of the combination (Phase I, with paclitaxel, adverse events consistent with those expected for paclitaxel alone): well-tolerated
% tumor cell lysis post-dose (NK cell activity [1]; Paclitaxel 80 + Cmpnd (1) 106 mg/M^2 weekly, 7 days after second dose, Effector/Target 80:1, one value per subject): 7.74% and 2.43%
NK activity (change before and after dosing) (NK cell activity [1]; [5]): increase; also recorded: decrease
% tumor cell lysis post-dose (NK cell activity [1]; Paclitaxel 80 + Cmpnd (1) 213 mg/M^2 weekly, 7 days after second dose, Effector/Target 80:1, one value per subject): 10.77% and 19.78% and 26.52% and 8.64% and 18.77% and 5.2% and 26.31% and 7.2%
NK activity (change before and after dosing) (NK cell activity [1]; [6]): increase; also recorded: no change; also recorded: decrease
% tumor cell lysis post-dose (NK cell activity [1]; [7]): 10.01%
NK activity (change before and after dosing) (NK cell activity [1]; [7]): (increase)
% tumor cell lysis pre-dose (NK cell activity [1]; [5]): 2.32% and 6.13%
% tumor cell lysis pre-dose (NK cell activity [1]; [6]): 3.83% and 19.71% and 41.61% and 8.6% and 24.76% and 16.49% and 15.4% and 10.81%
% tumor cell lysis pre-dose (NK cell activity [1]; [7]): 3.5%
patients with statistically significant increase in NK cell activity pre- to post-dose (NK cell activity [1]; original patients of Table 3): four of the original patients
percent increase in Hsp70 plasma levels (Hsp70; Compound (1) 88 mg/m2 with paclitaxel, at least one patient): about 90%
increase in Hsp70 plasma concentrations (Hsp70; Compound (1) 175 mg/m2 with paclitaxel, two patients): more than doubled
increase in Hsp70 plasma concentrations (Hsp70; Compound (1) 263 mg/m2 with paclitaxel, individual patients): roughly doubled; also recorded: more than 250%
increase in Hsp70 plasma concentrations (Hsp70; Compound (1) 438 mg/m2 with paclitaxel, individual patients): roughly doubled and ≤ 500%
Induction of Hsp70 protein in plasma (Hsp70; Compound (1) with paclitaxel, human plasma): dose dependent
plasma Hsp70 levels in patients (Hsp70; paclitaxel 175 mg/m2 and Compound (1) 88 through 438 mg/m2): dramatically increased
time-to-progression (Kaplan-Meier, FIG. 2) ([2]; Compound (1) with paclitaxel and carboplatin versus platin/taxane combinations, preliminary data): superior to the platin/taxane combination alone; also recorded: superior to prior platin/taxane combinations alone
Best Response [2, 8]: PR (at least a 30% decrease in the sum of the longest diameters as compared to baseline); also recorded: SD (less than 20% of an increase and less than 30% of a decrease in the sum of the longest diameters as compared to baseline)
Target Lesions (percent change) [2, 8]: −34% and −24% and −62% and −5.9% and −30% and −67%
Best Response [2, 9]: PR (at least a 30% decrease in the sum of the longest diameters as compared to baseline)
Target Lesions (percent change) [2, 9]: −38% and −44%
patients achieving a partial response (PR) ([2]; Phase 1, eight of sixteen patients, with carboplatin and paclitaxel): 50%
target lesion size ([2]; each patient completing the study (#1-#8)): substantial decrease
patients with best response of at least a 30% decrease in sum of longest diameters ([2]; of the 8 patients completing the study): 5 patients
tolerability of addition of Compound (1) to weekly paclitaxel schedule (Sarcoma study: safety): well-tolerated
% tumor cell lysis post-dose (NK cell activity [3]; 7 days after second dose, Effector/Target 80:1, one value per subject): 14.74% and 22.9% and 28.13% and 17.18% and 5.46% and 7.41% and 7.84% and 30.48% and 20.04% and 11.86%
NK activity (change before and after dosing) (NK cell activity [3]; [10]): decrease; also recorded: increase; also recorded: no change
% tumor cell lysis post-dose (NK cell activity [3]; [11]): 9.91%
NK activity (change before and after dosing) (NK cell activity [3]; [11]): no change
% tumor cell lysis pre-dose (NK cell activity [3]; [10]): 22.33% and 10.6% and 17.93% and 6.58% and 2.62% and 13.03% and 15.77% and 4.28% and 20.74% and 34.28%
% tumor cell lysis pre-dose (NK cell activity [3]; [11]): 9.88%
patients with decrease in NK cell activity pre- to post-dose (NK cell activity [3]; original patients of Table 4): four of the original patients
patients with statistically significant increase or no change in NK cell activity pre- to post-dose (NK cell activity [3]; original patients of Table 4): seven of the original patients
adverse events (Melanoma study: safety; Stage 1, with paclitaxel 80 mg/m2 weekly): as expected for paclitaxel chemotherapy administration
dose-limiting toxicities (Melanoma study: safety; initial safety assessment, Compound (1) 106 or 213 mg/m2 with paclitaxel 80 mg/m2 weekly): absence of dose-limiting toxicities
tolerability of the combination therapy (Melanoma study: safety; weekly schedule with paclitaxel): well-tolerated
PK linearity ([4]; Compound (1) 44-525 mg/m2, unaffected by paclitaxel dose): linear PK
terminal-phase half life ([4]; human plasma, IV over 3 hours co-administered with paclitaxel, cycle 1): 56.4 ± 13.8 min
